Read-outs that look alike come from different tables or passages of the source.
Legend:
[1] = system: D121 lung tumor cells; assay type: in vivo, C57 mice; conditions: for Effect together with PDL1-antibody in promoting immunization and treatment, in words: combination with PDL1-antibody; for Treatment effects on C57 mice, in words: compared to the control group and the other treatment groups
Summary of the method: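 Endpoint is tumor inhibition rate from tumor size (mm^3) after weekly drug treatment for 4 weeks, begun once s.c. tumors from 10^6 live D121 cells reached 0.3-0.4 cm. Before challenge, C57 mice received three i.p. doses of 5×10^5 irradiated D121 cells, two weeks apart, or saline.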

[2] = system: tumor CD8+ T cells; assay type: in vivo, C57 mice
Summary of the method: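 Tumour tissue homogenised and single cells filtered, washed, then stained 1 h at ambient temperature with CD45-PE and CD8-FITC antibodies. After washes in PBS with 1% FBS, flow cytometry gave the fraction of CD8⁺ cells among CD45⁺ leucocytes.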

[3] = system: Human pancreatic cancer Panc-1 tumor tissue homogenate; assay type: biochemical
Summary of the method: (§1)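 Compounds at 1 mg/ml were added to 100 μg of acidized tumor tissue homogenate (pH6.0) at 37° C. Proteases in the homogenate act on the compounds, and activation efficiency in each tissue was assessed.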

[4] = system: Human prostate cancer PC-3 tumor tissue homogenate; assay type: biochemical
Summary of the method: as §1

[5] = system: Human liver cancer Hepg2 tumor tissue homogenate; assay type: biochemical
Summary of the method: as §1

[6] = system: Human ovarian cancer SK-OV-3 tumor tissue homogenate; assay type: biochemical
Summary of the method: as §1

[7] = system: Human chronic leukemia K562 tumor tissue homogenate; assay type: biochemical
Summary of the method: as §1

[8] = system: Human colon cancer HT-29 tumor tissue homogenate; assay type: biochemical
Summary of the method: as §1

[9] = system: Human renal cancer OS-RC-2 tumor tissue homogenate; assay type: biochemical
Summary of the method: as §1

[10] = system: Human non-small cell lung cancer A549 tumor tissue homogenate; assay type: biochemical
Summary of the method: as §1

[11] = system: Human breast cancer MDA-MB435 tumor tissue homogenate; assay type: biochemical
Summary of the method: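 Compounds at 1 mg/ml incubated at 37° C. with 100 μg acidified (pH6.0) MDA-MB435 human breast tumor tissue homogenate, as a source of proteases for compound activation.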

[12] = Table 39, immunized C57 mice, D121, drugs 13.2 μmol/kg, PDL1-antibody 5 μg/kg, weekly for 4 weeks, Day 18
[13] = Day 18, immunized C57 mice, drugs 13.2 μmol/kg, PDL1 antibody 5 μg/kg, weekly for 4 weeks
[14] = D121 immunized C57 mice, drugs weekly for 4 weeks, Day 18 (Example 23)

COCCOCC(=O)NCCCC[C@H](NC(=O)COCCOC)C(=O)N[C@H](C)C(=O)N[C@H](C)C(=O)N[C@H](CC(N)=O)C(=O)Nc1ccc(COC(=O)OC(C(=O)OC2C[C@@]3(O)[C@@H](OC(=O)c4ccccc4)[C@H]4[C@](C)(C(=O)[C@H](O)C(=C2C)C3(C)C)[C@@H](O)CC2OC[C@]24OC(C)=O)[C@@H](NC(=O)OC(C)(C)C)c2ccccc2)cc1 (some centres unmarked) [Compound B1]
Size of tumor (mm^3) Day 18 [1, 12]: 271.36 ± 157.56 mm^3 | inhibitory rate on tumor % Day 18 [1, 12]: 83.25% | Effect together with PDL1-antibody in promoting immunization and treatment, in words [1]: excellent synergistic effect | Treatment effects on C57 mice, in words [1]: greatly improved | CD8: CD45 (%) ([2]; Table 39, CD8 positive cells in CD45 positive cells of tumor, flow cytometry, drugs 13.2 μmol/kg, PDL1-antibody 5 μg/kg): 18.9% | activation efficiency (%) ([3]; Table 34, Human pancreatic cancer Panc-1, 1 mg/ml, acidized homogenate, Docetaxel release by HPLC): 86.9% | activation efficiency (%) ([4]; Table 34, Human prostate cancer PC-3, 1 mg/ml, acidized homogenate, Docetaxel release by HPLC): 76.1% | activation efficiency (%) ([5]; Table 34, Human liver cancer Hepg2, 1 mg/ml, acidized homogenate, Docetaxel release by HPLC): 76.3% | activation efficiency (%) ([6]; Table 34, Human ovarian cancer SK-OV-3, 1 mg/ml, acidized homogenate, Docetaxel release by HPLC): 93.1% | activation efficiency (%) ([7]; Table 34, Human chronic leukemia K562, 1 mg/ml, acidized homogenate, Docetaxel release by HPLC): 69.0% | activation efficiency (%) ([8]; Table 34, Human colon cancer HT-29, 1 mg/ml, acidized homogenate, Docetaxel release by HPLC): 83.9% | activation efficiency (%) ([9]; Table 34, Human renal cancer OS-RC-2, 1 mg/ml, acidized homogenate, Docetaxel release by HPLC): 90.9% | activation efficiency (%) ([10]; Table 34, Human non-small cell lung cancer A549, 1 mg/ml, acidized homogenate, Docetaxel release by HPLC): 91.2% | activation efficiency (%) ([11]; Table 34, Human breast cancer MDA-MB435, 1 mg/ml, acidized homogenate, Docetaxel release by HPLC): 93.5%

COCCOCC(=O)N[C@H](C)C(=O)N[C@H](C)C(=O)N[C@H](CC(N)=O)C(=O)Nc1ccc(COC(=O)N2[C@@H]3CN4C5=C(C(=O)C(N)=C(C)C5=O)[C@H](COC(N)=O)[C@]4(OC)[C@@H]32)cc1 [Compound E1, 2-(2-methoxyethoxy) acetyl-L-Ala-L-Ala-L-Asn-4-amino benzyl mitomycin]
Size of tumor (mm^3) Day 18 [1, 13]: 237.60 ± 358.57 mm^3 | inhibitory rate on tumor % Day 18 [1, 13]: 83.27% | Effect together with PDL1-antibody in promoting immunization and treatment, in words [1]: excellent synergistic effect | Treatment effects on C57 mice, in words [1]: greatly improved | CD8: CD45 (%) ([2]; ratio of CD8 positive cells in CD45 positive cells of tumor, flow cytometry, drugs 13.2 μmol/kg, PDL1 antibody 5 μg/kg): 18.4% | Activation ratio (%) in homogenates from different tumor tissues ([3]; Human pancreatic cancer Panc-1, 37° C., 1 mg/ml): 89.4% | Activation ratio (%) in homogenates from different tumor tissues ([4]; Human prostate cancer PC-3, 37° C., 1 mg/ml): 78.9% | Activation ratio (%) in homogenates from different tumor tissues ([5]; Human liver cancer Hepg2, 37° C., 1 mg/ml): 94.6% | Activation ratio (%) in homogenates from different tumor tissues ([6]; Human ovarian cancer SK-OV-3, 37° C., 1 mg/ml): 93.5% | Activation ratio (%) in homogenates from different tumor tissues ([7]; Human chronic leukemia K562, 37° C., 1 mg/ml): 74.5% | Activation ratio (%) in homogenates from different tumor tissues ([8]; Human colon cancer HT-29, 37° C., 1 mg/ml): 94.2% | Activation ratio (%) in homogenates from different tumor tissues ([9]; Human renal cancer OS-RC-2, 37° C., 1 mg/ml): 99.7% | Activation ratio (%) in homogenates from different tumor tissues ([10]; Human non-small cell lung cancer A549, 37° C., 1 mg/ml): 97.4% | Activation ratio (%) in homogenates from different tumor tissues ([11]; Human breast cancer MDA-MB435, 37° C., 1 mg/ml): 97.3%

CCCCCOC(=O)Nc1nc(=O)n([C@@H]2O[C@H](C)[C@@H](OC(=O)OCc3ccc(NC(=O)[C@H](CC(N)=O)NC(=O)[C@H](C)NC(=O)[C@H](C)NC(=O)CCCCCCC(=O)NO)cc3)[C@H]2O)cc1F [Compound S3, 4-N—(N—(N—(N-(8-(N-hydroxylamino)-1,8-octandioic acid-1-monoacyl)-L-alanyl)-L-alanyl)-L-asparaginyl)-amino benzyl alcohol-capecitabine-carbonic acid diester]
Size of tumor (mm^3) Day 18 ([1]; D121 immunized C57 mice, 13.2 μmol/kg weekly, PDL1 antibody 5 μg/kg where combined, Day 18): 425.67 ± 126.67 mm^3 | Treatment effects on C57 mice, in words [1]: greatly improved | CD8: CD45 (%) ([2]; D121 immunized C57 mice, 13.2 μmol/kg, ratio of CD8 positive cells in CD45 positive cells of tumor): 18.4% | Activation Efficiencies (%) ([3]; Human pancreatic cancer Panc-1 tumor tissue homogenate (30 μg/ml), 1 mg/ml compound): 91.6% | Activation Efficiencies (%) ([4]; Human prostate cancer PC-3 tumor tissue homogenate (30 μg/ml), 1 mg/ml compound): 98.3% | Activation Efficiencies (%) ([5]; Human liver cancer Hepg2 tumor tissue homogenate (30 μg/ml), 1 mg/ml compound): 94.5% | Activation Efficiencies (%) ([6]; Human ovarian cancer SK-OV-3 tumor tissue homogenate (30 μg/ml), 1 mg/ml compound): 94.3% | Activation Efficiencies (%) ([7]; Human chronic leukemia K562 tumor tissue homogenate (30 μg/ml), 1 mg/ml compound): 93.2% | Activation Efficiencies (%) ([8]; Human colon cancer HT-29 tumor tissue homogenate (30 μg/ml), 1 mg/ml compound): 81.7% | Activation Efficiencies (%) ([9]; Human renal cancer OS-RC-2 tumor tissue homogenate (30 μg/ml), 1 mg/ml compound): 67.4% | Activation Efficiencies (%) ([10]; Human non-small cell lung cancer A549 tumor tissue homogenate (30 μg/ml), 1 mg/ml compound): 80.7% | Activation Efficiencies (%) ([11]; Human breast cancer MDA-MB435 tumor tissue homogenate (30 μg/ml), 1 mg/ml compound): 70.1%

COCCOCCOCCOCCOCCOCC(=O)N[C@H](C)C(=O)N[C@H](C)C(=O)N[C@H](CC(N)=O)C(=O)Nc1ccc(COC(=O)OC(C(=O)OC2C[C@@]3(O)[C@@H](OC(=O)c4ccccc4)[C@H]4[C@](C)(C(=O)[C@H](OC(C)=O)C(=C2C)C3(C)C)[C@@H](O)CC2OC[C@]24OC(C)=O)[C@@H](NC(=O)c2ccccc2)c2ccccc2)cc1 (some centres unmarked) [S2′]
Size of tumor (mm^3) Day 18 [1, 14]: 331.57 ± 114.74 mm^3 | inhibitory rate on tumor % Day 18 [1, 14]: 78.9% | Treatment effects on C57 mice, in words [1]: greatly improved | CD8: CD45 (%) ([2]; D121 immunized C57 mice (Example 23), CD8 positive cells in CD45 positive cells of tumor): 18.1% | Activation ratio (%) in homogenates from different tumor tissues ([3]; Human pancreatic cancer Panc-1, 100 μg acidized homogenate pH6.0, 1 mg/ml, 37°): 93.8% | Activation ratio (%) in homogenates from different tumor tissues ([4]; Human prostate cancer PC-3, 100 μg acidized homogenate pH6.0, 1 mg/ml, 37°): 98.4% | Activation ratio (%) in homogenates from different tumor tissues ([5]; Human liver cancer Hepg2, 100 μg acidized homogenate pH6.0, 1 mg/ml, 37°): 84.6% | Activation ratio (%) in homogenates from different tumor tissues ([6]; Human ovarian cancer SK-OV-3, 100 μg acidized homogenate pH6.0, 1 mg/ml, 37°): 84.6% | Activation ratio (%) in homogenates from different tumor tissues ([7]; Human chronic leukemia K562, 100 μg acidized homogenate pH6.0, 1 mg/ml, 37°): 73.3% | Activation ratio (%) in homogenates from different tumor tissues ([8]; Human colon cancer HT-29, 100 μg acidized homogenate pH6.0, 1 mg/ml, 37°): 89.9% | Activation ratio (%) in homogenates from different tumor tissues ([9]; Human renal cancer OS-RC-2, 100 μg acidized homogenate pH6.0, 1 mg/ml, 37°): 91.5% | Activation ratio (%) in homogenates from different tumor tissues ([10]; Human non-small cell lung cancer A549, 100 μg acidized homogenate pH6.0, 1 mg/ml, 37°): 89.4% | Activation ratio (%) in homogenates from different tumor tissues ([11]; Human breast cancer MDA-MB435, 100 μg acidized homogenate pH6.0, 1 mg/ml, 37°): 91.4%

Reference: patent US10682371B2, “Small molecule conjugates specifically activated in tumor microenvironment for targeting and use thereof” (priority 2014, dated 2020)
